Results as given in patent US8980866B2, “Complex obtained from hyaluronic acid or a salt thereof and chondroitin sulphate mixtures” (Quimera Ingenieria Biomedica, S.L., priority 2011, dated 2015).

Assay: Apparent viscosity by rheometry (HAAKE RheoStress RS300, stress controlled mode, Cross model)
Assay type: physicochemical
Conditions: for Viscosity, γ = 1: shear rate 1 s^−1, 25° C.; for Viscosity, γ = 1 / Viscosity, γ = 10 / Viscosity, γ = 100 / Viscosity, γ = 200: Milli-Q water, concentration per Table 3; for Viscosity, γ = 10: shear rate 10 s^−1, 25° C.; for Viscosity, γ = 100: shear rate 100 s^−1, 25° C.; for Viscosity, γ = 200: shear rate 200 s^−1, 25° C.
Protocol: Aqueous solutions of HA:CS mixtures (control) and atomized complexes at different weight ratios of sodium hyaluronate and chondroitin sulphate were prepared for rheological characterization. Their rheological profile was determined using a HAAKE RheoStress RS300 rheometer in stress controlled mode. A 1° cone and 35 mm diameter plate was used.
Controls and 1:1 and 1:10 complexes were reconstituted in Milli-Q water.
Based on an applied shear stress, viscosity of the samples was measured at 25° C. All samples fitted in a Cross model, which allowed to compare the results obtained.

Row | Substance | Viscosity, γ = 1 [mPa · s] | Viscosity loss, γ = 1 (shear rate 1 s^−1, difference in viscosity of a sample with respect its control) [%] | Viscosity, γ = 10 [mPa · s] | Viscosity loss, γ = 10 (shear rate 10 s^−1, difference in viscosity of a sample with respect its control) [%] | Viscosity, γ = 100 [mPa · s] | Viscosity loss, γ = 100 (shear rate 100 s^−1, difference in viscosity of a sample with respect its control) [%] | Viscosity, γ = 200 [mPa · s] | Viscosity loss, γ = 200 (shear rate 200 s^−1, difference in viscosity of a sample with respect its control) [%]
1 | sodium hyaluronate [Sample 2] | 3378.5 | 30.8 | 1924.5 | 16.5 | 522.0 | 9.6 | 326.5 | 12.9
2 | sodium hyaluronate [Sample 1] | 4884.3 |  | 2307.0 |  | 578.0 |  | 375.0 | 
